Measurements taken from article PMC9230797, “Integration of a Physiologically Based Pharmacokinetic and Pharmacodynamic Model for Tegoprazan and Its Metabolite: Application for Predicting Food Effect and Intragastric pH Alterations” (Pharmaceutics, 2022).
Several values for one entry are separate records, joined by “and”; a condition that tells them apart may be missing. Equal entries are not always repeated.

Legend:
CYP2C9 = target: T1, CYP2C9 (Homo sapiens, UniProt P11712); test: Intrinsic clearance using recombinant CYPs: CYP2C9; assay type: in vitro ADME
T1 construct: purchased Corning Life Sciences (Woburn, MA, USA)
T1 sequence (P11712 whole entry): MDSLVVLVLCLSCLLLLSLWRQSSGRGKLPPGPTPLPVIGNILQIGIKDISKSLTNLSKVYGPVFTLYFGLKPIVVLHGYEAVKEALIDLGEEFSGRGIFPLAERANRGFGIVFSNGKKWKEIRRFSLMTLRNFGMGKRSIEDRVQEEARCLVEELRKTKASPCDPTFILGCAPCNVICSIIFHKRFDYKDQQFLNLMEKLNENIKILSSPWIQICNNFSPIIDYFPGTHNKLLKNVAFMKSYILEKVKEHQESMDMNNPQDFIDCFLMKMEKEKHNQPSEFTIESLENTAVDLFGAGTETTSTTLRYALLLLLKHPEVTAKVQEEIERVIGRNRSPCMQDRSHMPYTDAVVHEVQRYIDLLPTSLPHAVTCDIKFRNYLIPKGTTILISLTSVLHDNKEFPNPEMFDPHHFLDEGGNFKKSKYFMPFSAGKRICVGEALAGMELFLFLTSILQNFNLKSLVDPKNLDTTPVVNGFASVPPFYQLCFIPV
Method: The elimination profiles of tegoprazan and M1 were assessed using rCYPs. All the assay procedures were performed according to the manufacturer’s instructions. Master mix (1.399 mL), containing the NADPH-generating system, 3.3 mM of glucose 6-phosphate, PBS buffer, deionized water, and each rCYP (25 pmol/μL of CYP2C8, 2C19, and 2E1 and 50 pmol/μL of CYP3A4, 2C9, and 2D6), was added to a microtube and pre-incubated at 37 °C for 5 min. Next, 1 μM tegoprazan and M1 were added and incubated at 37 °C for 0, 5, 10, 20, 30, 45, and 60 min. A total of 100 μL of the sample, incubated for predefined duration, was transferred to a fresh e-tube. Next, 200 μL of acetonitrile containing tegoprazan-d6 (0.5 μM) was added, vortexed for 5 min, and centrifuged at 16,200× g and 4 °C for 10 min. The concentrations of the remaining tegoprazan and M1 were determined by LC–MS/MS. All experiments were performed in duplicate. CLint,rCYP levels were assessed using the results of the disappearance test. […] The CLint resulting from rCYPs was calculated using Equation (3):(3) CLint,rCYP(μL/min/pmol CYP)=0.693/t1/2×1400/concentration of CYP
Caco-2 and rCYP samples were quantified using LC-MS/MS (UPLC® I-class coupled with TQ-MS (Waters, Milford, MA, USA). The mobile phase comprised (a) 0.1% formic acid and (b) acetonitrile containing 0.1% formic acid. Gradient elution at a flow rate of 0.3 mL/min was applied. Tegoprazan, M1, and the internal standard (tegoprazan-d6) were optimized in electrospray ionization positive mode. Acetonitrile with 0.1 μM of tegoprazan-d6 was added to the collected Caco-2 or rCYP samples. Then, processed samples were centrifuged at 13,000× g for 20 min. After centrifugation, 100 μL of supernatant was transferred to an LC-MS vial and analyzed using LC-MS/MS. […] The stability of tegoprazan was evaluated, and it satisfied the acceptance criteria (coefficient of variances was within 15%) under variable conditions including reinjection, processed sample stability (PSS), and short-term stability for the stock and sample.

recombinant CYP2C8 = target: T2, recombinant CYP2C8 (Homo sapiens, UniProt P10632); test: Intrinsic clearance using recombinant CYPs: CYP2C8; assay type: in vitro ADME; details: 1 μM
T2 construct: purchased Corning Life Sciences (Woburn, MA, USA)
T2 sequence (P10632 1-490): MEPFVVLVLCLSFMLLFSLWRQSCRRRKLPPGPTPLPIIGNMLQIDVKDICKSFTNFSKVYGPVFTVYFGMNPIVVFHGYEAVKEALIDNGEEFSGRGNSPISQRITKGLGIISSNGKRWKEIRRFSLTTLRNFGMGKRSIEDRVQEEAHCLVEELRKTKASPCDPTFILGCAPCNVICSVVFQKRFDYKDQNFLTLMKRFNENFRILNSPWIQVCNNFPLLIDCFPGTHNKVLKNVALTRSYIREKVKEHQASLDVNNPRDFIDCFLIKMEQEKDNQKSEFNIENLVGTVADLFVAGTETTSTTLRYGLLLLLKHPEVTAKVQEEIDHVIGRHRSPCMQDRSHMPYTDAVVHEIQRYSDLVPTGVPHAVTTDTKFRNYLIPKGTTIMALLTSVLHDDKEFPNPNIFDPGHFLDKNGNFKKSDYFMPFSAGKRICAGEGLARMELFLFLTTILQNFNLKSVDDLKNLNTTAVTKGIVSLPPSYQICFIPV
Method: The elimination profiles of tegoprazan and M1 were assessed using rCYPs. All the assay procedures were performed according to the manufacturer’s instructions. Master mix (1.399 mL), containing the NADPH-generating system, 3.3 mM of glucose 6-phosphate, PBS buffer, deionized water, and each rCYP (25 pmol/μL of CYP2C8, 2C19, and 2E1 and 50 pmol/μL of CYP3A4, 2C9, and 2D6), was added to a microtube and pre-incubated at 37 °C for 5 min. Next, 1 μM tegoprazan and M1 were added and incubated at 37 °C for 0, 5, 10, 20, 30, 45, and 60 min. A total of 100 μL of the sample, incubated for predefined duration, was transferred to a fresh e-tube. Next, 200 μL of acetonitrile containing tegoprazan-d6 (0.5 μM) was added, vortexed for 5 min, and centrifuged at 16,200× g and 4 °C for 10 min. The concentrations of the remaining tegoprazan and M1 were determined by LC–MS/MS. All experiments were performed in duplicate. CLint,rCYP levels were assessed using the results of the disappearance test. The terminal slope of the linear regression was used to determine the CLint for tegoprazan. The CLint resulting from rCYPs was calculated using Equation (3):(3) CLint,rCYP(μL/min/pmol CYP)=0.693/t1/2×1400/concentration of CYP […]

[1] = PBPK model prediction of plasma PK (SimCYP simulator); design: species or system human
Text: The tegoprazan and M1 PBPK models were developed using SimCYP® simulator, version 20 (Certara, Princeton, NJ, USA). Compound libraries were incorporated into an in vitro dataset, including the microsomal clearance of tegoprazan and M1. Observed PK parameters were obtained from the aforementioned clinical studies (Table 1 and Table 2).
The absorption of tegoprazan was applied to the advanced dissolution, absorption, and metabolism (ADAM) model, and the diffusion layer model (DLM) built into SimCYP® was applied to the considered formulation and pH-dependent solubility of tegoprazan. The permeability of tegoprazan was determined by a Caco-2 permeability assay and optimized by parameter estimation. Caco-2 permeability was optimized such that the predicted concentration–time profiles were fitted to clinical study data. The metabolite was generated by the metabolism of the parent drug; therefore, absorption was not considered.
The tissue distribution in the PBPK model was predicted by the distribution model (e.g., Rodger and Rowland method, Poulin and Theil method) and the tissue:plasma partition coefficient (Kp) scalar for specific organ or global values. Predicted systemic distribution was expressed as the volume of distribution in a steady state (Vss). The Vd values of the clinical study were applied to the initial model of tegoprazan, and parameter estimation was used to determine the optimized Kp scalar fitted to the observed data. The Rodger and Rowland method (method 2) was applied to consider the weak base property and distribution of the neutral and ionic forms. The minimal PBPK model was applied to the M1 distribution module to reduce the complexity. The volume of a single adjusting compartment (Vsac), non-physiological compartment, input rate to SAC (kin), and elimination rate from SAC (kout) were estimated using the parameter estimation module within SimCYP®.
The elimination profiles of tegoprazan and M1 were obtained from in vitro, in vivo, and in silico predictions. Optimized in-house intrinsic clearance for CYPs (CLint,rCYPs), and human liver microsomal and cytosolic (HLM and HLC) clearance were applied to the elimination module of the tegoprazan model. Observed or estimated renal and biliary clearance were applied to the tegoprazan and M1 models. Whole-organ metabolic clearance, using the optimized value for the in vitro assay results, was applied to the M1 model.
The virtual dosing regimen was set to a single oral dose of 100 mg tegoprazan, to match that of the observed data. The simulation conditions were set for 100 virtual subjects who participated in 10 virtual clinical studies (1000 volunteers). The age range was 20 to 40 years, and the male-to-female ratio was 1:1. The predicted and observed PK parameters were compared to evaluate the model prediction results. […] If the predicted vs. observed ratio and its 95% CI were within the 30% range (0.7–1.3), the model was considered to fit well.
Postprandial PK profiles were predicted using an established model. Concentration–time profiles were obtained following a single oral dose (50 mg) of tegoprazan in the fasting state or 30 min after a high-fat diet. The predicted AUClast, Cmax, and Tmax values were compared with those of a previous clinical study.

[2] = At 30 min after a high-fat meal, single 50 mg
[3] = single 100 mg tegoprazan, (95% confidence interval)

SMILES: Cc1nc2cc(C(=O)N(C)C)cc(O[C@H]3CCOc4cc(F)cc(F)c43)c2[nH]1 [tegoprazan]
- CLint, CYP2C9 (CYP2C9; 1 μM, experimental data): 0.14 µL/min/pmol and 0.140 µL/min/pmol
- half-life at 1 μM (CYP2C9; human, recombinant CYP2C9, rCYP2C9): 2.27 h
- Slope (disappearance) (CYP2C9; rCYP2C9, 1 μM): -0.005
- CLint, CYP2C8 (recombinant CYP2C8; experimental data): 0.06 µL/min/pmol and 0.060 µL/min/pmol
- Slope (disappearance) (recombinant CYP2C8; rCYP2C8): 0.002
- increase of predicted Cmax at Day 7 compared with Day 1 ([1]; 100 mg once daily): approximately 1.84%
- AUC0–24 h Ratio (Predicted/Observed) [1, 2]: 0.88 (0.43–1.32)
- Cmax Ratio (Predicted/Observed) [1, 2]: 0.96 (0.32–1.59)
- AUC0–24 h Ratio (Predicted/Observed) ([1]; Fast, single 50 mg): 0.89 (0.45–1.33)
- Cmax Ratio (Predicted/Observed) ([1]; Fast, single 50 mg): 0.85 (0.62–1.09)
- decrease of predicted mean Cmax after a high-fat diet vs fasted state ([1]; single 50 mg): 31.3%
- AUC0–24 h Ratio (Predicted/Observed) [1, 3]: 0.90 (0.85–0.96)
- CL Ratio (Predicted/Observed) [1, 3]: 1.25 (1.17–1.34)
- Cmax Ratio (Predicted/Observed) [1, 3]: 0.88 (0.80–1.00)
